Results published in ChEMBL document CHEMBL4765331, “Amides of pyrrole- and thiophene-fused anthraquinone derivatives: A role of the heterocyclic core in antitumor properties” (Eur J Med Chem, 2020).
pIC50: −log10 of the molar value. Activity calls are given as the source filed them. The rule behind the calls is not given here.

What was measured:
P388 [1] = assay: Antitumour activity against mouse P388 cells xenografted subcutaneously in BDF1 mouse assessed as inhibition of tumour growth at 20 to 60 mg/kg, ip administered qd for 5 days starting from day 1 of tumor cell inoculation and measured at day 14 to 18 post-tumor cell inoculation; assay type: functional, organism-based; settings: dose 20-60 mg/kg, time 14-18 day, TDE = time-dependent effect
TERT-RPE1 = assay: Cytotoxicity against human TERT-RPE1 cells assessed as inhibition of cell proliferation measured after 72 hrs by MTT assay; assay type: cell-based; settings: RPE-1, 72 h
Calf thymus DNA [2] = assay: Binding affinity to calf thymus DNA assessed as DNA intercalation by measuring decrease of negative DNA band at 245 nm at 50 uM by circular dichroism spectral analysis; assay type: tissue-based; settings: Bos taurus
P388 [3] = assay: Antitumour activity against mouse P388 cells xenografted intraperitoneally in BDF1 mouse assessed as mean life span time at 20 mg/kg, ip administered qd for 5 days (reference value: 11.5 +/-0.9 days); assay type: functional; settings: dose 20 mg/kg/day; time 5 day
Calf thymus DNA [4] = assay: Binding affinity to calf thymus double stranded DNA at 10 uM measured after 5 mins by flourescence spectroscopy method; settings: Bos taurus
K562 [5] = assay: Induction of cell cycle arrest in human K562 cells assessed as accumulation at subG1 phase at 2XIC50 measured after 24 hrs by propidium iodide/RNase staining based flow cytometry; assay type: functional
K562 [6] = assay: Induction of apoptosis in human K562 cells assessed as late apoptotic cells at 1.6 uM measured after 24 hrs by Annexin V-APC/PI staining based flow cytometry assay (reference value: […]); assay type: functional
P388 [7] = assay: Antitumour activity against mouse P388 cells xenografted subcutaneously in ip dosed BDF1 mouse assessed as inhibition of tumour growth administered qd for 5 days starting from day 1 of tumor cell inoculation and measured at day 14 to 18 post-tumor cell inoculation; assay type: functional, organism-based; settings: dose 20-60 mg/kg, time 14-18 day
[8] = target: T1, DNA topoisomerase 1 (Homo sapiens) (UniProt P11387); assay: Inhibition of human topoisomerase 1-mediated relaxation of supercoiled plasmid using pBR322 plasmid as substrate at 40 uM measured after 30 mins by ethidium bromide dye based agarose gel electrophoresis method
T1 sequence (whole entry): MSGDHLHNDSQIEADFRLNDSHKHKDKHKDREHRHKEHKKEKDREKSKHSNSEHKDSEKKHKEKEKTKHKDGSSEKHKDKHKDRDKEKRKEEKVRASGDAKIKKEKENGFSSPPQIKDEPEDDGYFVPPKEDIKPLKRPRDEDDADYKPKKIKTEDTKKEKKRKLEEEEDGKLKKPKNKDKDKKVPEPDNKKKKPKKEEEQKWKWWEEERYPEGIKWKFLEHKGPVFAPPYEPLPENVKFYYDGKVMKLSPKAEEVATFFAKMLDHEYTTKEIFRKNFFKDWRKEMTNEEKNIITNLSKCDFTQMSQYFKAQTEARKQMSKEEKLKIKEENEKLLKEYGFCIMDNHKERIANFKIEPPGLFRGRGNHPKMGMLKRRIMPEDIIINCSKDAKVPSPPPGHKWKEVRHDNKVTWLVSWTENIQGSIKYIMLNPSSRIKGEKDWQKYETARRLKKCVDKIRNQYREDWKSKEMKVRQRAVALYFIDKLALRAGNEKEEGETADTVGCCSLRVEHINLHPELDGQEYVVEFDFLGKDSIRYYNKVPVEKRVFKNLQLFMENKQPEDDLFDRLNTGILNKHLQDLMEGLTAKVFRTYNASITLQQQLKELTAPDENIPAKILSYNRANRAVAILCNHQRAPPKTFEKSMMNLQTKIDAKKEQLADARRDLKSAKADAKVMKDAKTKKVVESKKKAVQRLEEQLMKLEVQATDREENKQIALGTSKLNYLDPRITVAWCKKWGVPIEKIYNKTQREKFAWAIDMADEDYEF

K562 [9] = assay: Antiproliferative activity against human K562 cells assessed as inhibition of cell proliferation measured after 72 hrs by MTT assay; assay type: functional, cell-based; settings: K562, 72 h
[10] = Drug uptake in P-gp-positive/doxorubicin-resistant human K562/4 cells; assay type: ADME
K562 [11] = assay: Induction of apoptosis in human K562 cells assessed as necrotic cells at 1.6 uM measured after 24 hrs by Annexin V-APC/PI staining based flow cytometry assay (reference value: 3.9%); assay type: functional
[12] = Drug uptake in mouse NIH3T3 cells assessed as compound localization in mitochondria at 1 uM measured after 15 mins by Mitotracker Green FM dye based laser scanning microscope; assay type: ADME; settings: nih3t3, 0.25 h
[13] = Selectivity index, ratio of IC50 for human TERT-RPE1 cells to IC50 for human CAPAN-1 cells
HCT-116 = assay: Antiproliferative activity against human HCT-116 cells assessed as inhibition of cell proliferation measured after 72 hrs by MTT assay; assay type: functional, cell-based; settings: HCT-116, 72 h
K562 [14] = assay: Induction of apoptosis in human K562 cells assessed as early apoptotic cells at 1.6 uM measured after 24 hrs by Annexin V-APC/PI staining based flow cytometry assay (reference value: 3.4%); assay type: functional
K562 [15] = assay: Induction of oxidative stress in human K562 cells assessed as increase in intracellular ROS generation at 1.6 uM measured after 40 mins by Deep Red dye based flow cytometry method; assay type: functional, cell-based
[16] = Toxicity in BDF1 mouse xenografted with mouse P388 cells assessed as lethality at 60 mg/kg, ip administered qd for 5 days; assay type: organism-based; settings: in vivo, 120 h, dose 60 mg/kg/day, time 5 day
NCI-H460 = assay: Antiproliferative activity against human NCI-H460 cells assessed as inhibition of cell proliferation measured after 72 hrs by MTT assay; assay type: functional, cell-based; settings: NCI-H460, 72 h
CAPAN-1 = assay: Antiproliferative activity against human CAPAN-1 cells assessed as inhibition of cell proliferation measured after 72 hrs by MTT assay; assay type: functional, cell-based; settings: CAPAN-1, 72 h
Calf thymus DNA [17] = assay: Binding affinity to calf thymus DNA assessed as stoichiometry ratio of compound-DNA complex formation by scatchard plot analysis; settings: Bos taurus
HL-60 = assay: Antiproliferative activity against human HL-60 cells assessed as inhibition of cell proliferation measured after 72 hrs by MTT assay; assay type: functional, cell-based; settings: HL-60, 72 h
K562 [18] = assay: Induction of apoptosis in human K562 cells assessed as necrotic cells at 1.6 uM measured after 48 hrs by Annexin V-APC/PI staining based flow cytometry assay (reference value: 3.9%); assay type: functional
K562 [19] = assay: Induction of cell cycle arrest in human K562 cells assessed as accumulation at G2/M phase at 2XIC50 measured after 48 hrs by propidium iodide/RNase staining based flow cytometry; assay type: functional
P388 [20] = assay: Antitumour activity against mouse P388 cells xenografted subcutaneously in BDF1 mouse assessed as inhibition of tumour growth at 60 mg/kg, ip administered qd for 5 days starting from day 1 of tumor cell inoculation and measured at day 18 post-tumor cell inoculation; assay type: functional; settings: P388, 432 h, time 18 day, read-out: TGI
[21] = Selectivity index, ratio of IC50 for human TERT-RPE1 cells to IC50 for human NCI-H460 cells; assay type: toxicity; settings: TERT-RPE1 cells and NCI-H460 cells, read-out: Ratio IC50

In the case of Cc1[nH]c2c(O)c3c(c(O)c2c1C(=O)N1CC[C@H](N)C1)C(=O)c1ccccc1C3=O, the Activity (P388 [1]) was “Tde”, the pIC50 (TERT-RPE1) was 4.80 and the Activity (Calf thymus DNA [2]) was “Active”. The Time (P388 [3]) was 17.6 days, the Activity (Calf thymus DNA [4]) was “Active” and the Activity (K562 [5]) was “Active”. The Activity (K562 [6]) was 8.3%, the Activity (P388 [7]) was “Dose-dependent effect” and the inhibition [8] was “Active”. For the same molecule, the pIC50 (K562 [9]) was 6.10, the Drug uptake [10] was “Active” and the Activity (K562 [11]) was 21%. For the same molecule, the Drug uptake [12] was “Active”, the “Ratio IC50” value [13] was 18 and the pIC50 (HCT-116) was 6.05. The Activity (K562 [14]) was 1.3%, the Activity (K562 [15]) was “inactive” and the Activity [16] was “Non-Toxic”. The pIC50 (NCI-H460) was 6.05, the pIC50 (CAPAN-1) was 6.30 and the Ratio (Calf thymus DNA [17]) was 4.6. For the same molecule, the pIC50 (HL-60) was 6.05, the Activity (K562 [18]) was 34.8% and the Activity (K562 [19]) was “Active”. For the same molecule, the inhibition in vivo at 60 mg/kg (P388 [20]) was 79% and the selectivity ratio [21] was 18.
